Measurements published in the supplement of paper PMC11451515.

Test system: SEM cells
Test: cell viability relative to DMSO control; higher = less cytotoxic
Details: 48 h
Procedure, shortened: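 Viability is a per-plate percentage relative to DMSO wells, with cell-free wells as background. CellTiter-Glo One luminescence was read after 48 h at 37°C on 1536-well plates (5 μl) of NOMO1 or SEM (500 cells/well) or P12-Ichikawa (1000 cells/well) leukemia cells. The cells had been adapted for at least four passages in each medium and pin-dosed with library compounds in DMSO from 47 μM to 0.79 nM in 11 threefold steps.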

[1] = HPLM + 10% dialyzed FBS, 0.000781 µM
[2] = HPLM + 10% dialyzed FBS, 0.00234 µM
[3] = HPLM + 10% dialyzed FBS, 0.00702 µM
[4] = HPLM + 10% dialyzed FBS, 0.0211 µM
[5] = HPLM + 10% dialyzed FBS, 0.0632 µM
[6] = HPLM + 10% dialyzed FBS, 0.19 µM
[7] = HPLM + 10% dialyzed FBS, 0.569 µM
[8] = HPLM + 10% dialyzed FBS, 1.71 µM
[9] = HPLM + 10% dialyzed FBS, 5.12 µM
[10] = HPLM + 10% dialyzed FBS, 15.4 µM
[11] = HPLM + 10% dialyzed FBS, 46.1 µM
[12] = RPMI 5 mM glucose + 10% FBS, 0.000781 µM
[13] = RPMI 5 mM glucose + 10% FBS, 0.00234 µM
[14] = RPMI 5 mM glucose + 10% FBS, 0.00702 µM
[15] = RPMI 5 mM glucose + 10% FBS, 0.0211 µM
[16] = RPMI 5 mM glucose + 10% FBS, 0.0632 µM
[17] = RPMI 5 mM glucose + 10% FBS, 0.19 µM
[18] = RPMI 5 mM glucose + 10% FBS, 0.569 µM
[19] = RPMI 5 mM glucose + 10% FBS, 1.71 µM
[20] = RPMI 5 mM glucose + 10% FBS, 5.12 µM
[21] = RPMI 5 mM glucose + 10% FBS, 15.4 µM
[22] = RPMI 5 mM glucose + 10% FBS, 46.1 µM
[23] = RPMI 5 mM glucose + 10% dialyzed FBS, 0.000781 µM
[24] = RPMI 5 mM glucose + 10% dialyzed FBS, 0.00234 µM
[25] = RPMI 5 mM glucose + 10% dialyzed FBS, 0.00702 µM
[26] = RPMI 5 mM glucose + 10% dialyzed FBS, 0.0211 µM
[27] = RPMI 5 mM glucose + 10% dialyzed FBS, 0.0632 µM
[28] = RPMI 5 mM glucose + 10% dialyzed FBS, 0.19 µM
[29] = RPMI 5 mM glucose + 10% dialyzed FBS, 0.569 µM
[30] = RPMI 5 mM glucose + 10% dialyzed FBS, 1.71 µM
[31] = RPMI 5 mM glucose + 10% dialyzed FBS, 5.12 µM
[32] = RPMI 5 mM glucose + 10% dialyzed FBS, 15.4 µM
[33] = RPMI 5 mM glucose + 10% dialyzed FBS, 46.1 µM

Compound	cell viability [1]	cell viability [2]	cell viability [3]	cell viability [4]	cell viability [5]	cell viability [6]	cell viability [7]	cell viability [8]	cell viability [9]	cell viability [10]	cell viability [11]	cell viability [12]	cell viability [13]	cell viability [14]	cell viability [15]	cell viability [16]	cell viability [17]	cell viability [18]	cell viability [19]	cell viability [20]	cell viability [21]	cell viability [22]	cell viability [23]	cell viability [24]	cell viability [25]	cell viability [26]	cell viability [27]	cell viability [28]	cell viability [29]	cell viability [30]	cell viability [31]	cell viability [32]	cell viability [33]
CC1(C)OC2CC3C4CC(F)C/5=C/C(=O)/C=C\C5(C)C4C(O)CC3(C)[C@@]2(O1)C(=O)CO (some centres undefined)	97.4%	95.3%	95.6%	102%	94.6%	85.9%	77.2%	65.9%	65.7%	33.9%	71.1%	91.4%	98.9%	104%	105%	101%	77.5%	60.7%	56%	59.6%	20.5%	60.3%	109%	95.4%	122%	125%	106%	78%	75.4%	62.7%	55.9%	26%	61.6%
O=C(/C=C/c1cccc([S+](=O)([O-])Nc2ccccc2)c1)NO	113%	119%	122%	129%	124%	75.6%	58.4%	26.4%	12.2%	8.53%	8.48%	106%	150%	124%	120%	118%	81.1%	53%	26.7%	10.6%	8.84%	8.83%	95.9%	123%	120%	113%	128%	83.6%	52%	20.9%	9.84%	8.65%	8.77%
Clc1cc(Cl)cc(CNc2ncncc2-c2ccc3c(c2)OCO3)c1	93.3%	101%	95.7%	97.4%	89%	104%	92.2%	105%	90.4%	89.1%	29.7%	100%	97.4%	98.4%	94.5%	92.7%	110%	103%	86.6%	92.3%	86.6%	5.5%	90.5%	95.3%	102%	99.7%	90.5%	96.8%	80.4%	100%	105%	86.2%	28.3%
Cn1cc(-c2ccc3nnc(C(F)(F)c4ccc5ncccc5c4)n3n2)cn1	103%	117%	115%	99.6%	111%	108%	113%	106%	106%	95.4%	82%	123%	115%	120%	112%	126%	132%	126%	123%	114%	121%	81.5%	96%	114%	104%	102%	105%	111%	98.6%	97.2%	94.8%	90.5%	67.2%
CCn1c(-c2nonc2N)nc2cncc(CNC3CCNCC3)c21	119%	121%	126%	134%	137%	131%	129%	109%	96.1%	60.7%	30.8%	101%	125%	124%	143%	144%	152%	120%	61.5%	58.3%	18.9%	15.8%	123%	126%	113%	131%	118%	115%	137%	110%	100%	45.2%	22.7%
COc1cc(O)c2c(c1)C1OC1C[C@H](O)[C@H](O)C(=O)/C=C\C[C@H](C)OC2=O (some centres undefined)	95.5%	93.1%	111%	108%	125%	125%	101%	114%	55.5%	31.4%	7.96%	101%	103%	108%	86.9%	114%	108%	117%	101%	58%	30.7%	4.26%	101%	119%	117%	127%	109%	121%	102%	110%	47.6%	24.4%	5.3%
C[C@H]1C[C@H]2[C@@H]3CCC4=CC(=O)C=C[C@]4(C)[C@@]3(F)[C@@H](O)C[C@]2(C)[C@@]1(O)C(=O)CO	86.1%	105%	101%	92.8%	99.5%	78.5%	68.9%	27.5%	67.1%	31.3%	66%	101%	110%	106%	105%	91.6%	67.3%	66.7%	26.4%	69.6%	22.8%	64.4%	108%	140%	114%	93.6%	87.1%	72.6%	72.3%	24%	53.2%	23.9%	74%
COc1cc2c(Oc3ccc(NC(=O)C4(C(=O)Nc5ccc(F)cc5)CC4)cc3F)ccnc2cc1OCCCN1CCOCC1	45.9%	38.6%	35.5%	35.9%	33.8%	31.9%	32.3%	16.1%	19.9%	17.1%	3.11%	59.2%	45.2%	42.3%	43.6%	37.4%	33.6%	42.5%	13.5%	10.9%	7.49%	3.41%	41.9%	28.5%	34.8%	28.2%	23.9%	25.3%	25.7%	9.12%	11.7%	8.88%	2.51%
CCCCCCCc1ccc(CCc2cccc(O)c2C(=O)O)cc1	–	–	–	–	–	–	–	–	–	–	–	82.3%	113%	126%	128%	120%	112%	111%	122%	105%	107%	101%	75.5%	121%	135%	130%	119%	111%	134%	119%	110%	125%	107%
CN(C/C=C/C#CC(C)(C)C)Cc1cccc2ccccc12	81.5%	84.7%	93%	92.4%	96.3%	101%	114%	94%	107%	100%	98.3%	72.2%	99.6%	86.7%	94.2%	93.3%	101%	105%	105%	95%	76.5%	99.4%	81%	90.4%	85.9%	98.9%	110%	95.6%	96.6%	104%	117%	104%	95%
OC[C@H](Cc1ccccc1)Nc1nc(Oc2ccc3c(c2)CCC3)nc2c1ncn2Cc1ccc(-c2ccccc2)cc1	90.7%	101%	98.5%	107%	108%	78.4%	105%	99.2%	103%	80.3%	62.9%	85.3%	85.9%	91.7%	93.8%	89.5%	89.2%	95%	97.9%	94.7%	80.7%	76.7%	80%	97.8%	94.3%	89.5%	92.4%	89.2%	100%	101%	88.5%	84.4%	69.9%
CCc1c(C(=O)C(N)=O)c2c(OCC(=O)O)cccc2n1Cc1ccccc1	103%	93.2%	94.3%	107%	98.7%	104%	102%	98.2%	90.8%	88.3%	84.5%	101%	100%	116%	110%	90.8%	98.4%	111%	111%	114%	88.4%	82.6%	92.9%	102%	104%	116%	104%	105%	123%	92.7%	106%	91.9%	89.3%
OC(=O)\C1=C\N(C2=CC=C(F)C=C2)C3=C(C=C(F)C(=C3)N4CCNCC4)C1=O	89.5%	101%	100%	101%	105%	90.7%	82.4%	89.4%	86.4%	90%	93.9%	101%	108%	120%	92.1%	114%	112%	97.2%	95.7%	110%	113%	103%	103%	103%	112%	125%	107%	111%	87.5%	113%	95.3%	95.1%	87.3%
CC(C)Nc1cc(C(F)(F)F)cc2nc(NC(=O)c3cccnc3)nn12	113%	105%	101%	118%	119%	96.6%	102%	42.3%	26.5%	13.7%	5.96%	113%	112%	95.3%	110%	107%	89.2%	94.2%	18%	15.8%	8.3%	2.38%	126%	98.6%	116%	113%	102%	94%	101%	23.2%	16.3%	11.1%	4.75%
O=C1C[C@@H](c2ccc(O)cc2)Oc2cc(O)cc(O)c21	123%	115%	122%	119%	119%	118%	125%	110%	116%	120%	106%	102%	91.4%	79.3%	83.3%	91.7%	83%	64.5%	77.7%	67.2%	80.4%	64%	124%	116%	130%	123%	124%	114%	122%	115%	121%	139%	88.5%
